“Also recorded” adds a separate entry of the source. Read-outs that look alike come from different tables or passages of the source.
What was measured:
[1] = target: T1, NRP-1 (Homo sapiens, UniProt O14786); conditions: peptide alone, cited from earlier work
Method: In the nano AGuIX platform tested, firstly, DOTA was chelated with Gd or Tb, and secondly, a targeted peptide recognizing neuropilin 1 (NRP-1) coupled to RB (i.e., K(RB)DKPPR) was conjugated to the surface of AGuIX NPs. […] In K(RB)DKPPR, conjugation via a maleimide function enhanced the affinity constant to the order of nM. Finally, NPs were tested in vitro on U-251 MG cells, derived from a human glioblastoma multiforme, using an anchorage-dependent clonogenic assay. […] An increase in SOSG fluorescence signal was observed confirming ^1O2 production, which was inhibited by the addition of NaN3 in the reaction mixture (Figure 11).

[2] = target: T1, NRP-1; assay: NRP-1 binding, competitive assay; conditions: conjugated via maleimide on AGuIX NPs
Method: The affinity of AGuIX Ln@Mal-K(RB) and AGuIX Ln@Mal-K(RB)DKPPR to NRP-1 was determined as previously described in terms of IC50 in another study.

[3] = Zeta potential; type: physicochemical; conditions: DLS, Zetasizer Nano-Z, He-Ne 633 nm; pH 7.2 mentioned; listed as AGuIX Ln@Mal-K(RB)DKPPR (Ln = Gd)
Method: The zeta potential (ξ) for each NPs was determined using Zetasizer Nano-Z (Malvern, UK) equipped with a He-Ne laser at 633 nm.

[4] = Hydrodynamic size by TDA-ICP-MS; type: physicochemical; conditions: Table 4, listed as AGuIX Ln@Mal-K(RB)DKPPR (Ln = Gd)
Method: TDA experiments were conducted using a TDA-ICP-MS hyphenation between a Sciex P/ACE MDQ instrument and a 7700 Agilent ICP-MS. Fused silica capillaries with an inner diameter of 75 µm and outer diameter of 375 µm, and a total length of 64 cm, were coated with hydroxypropylcellulose (HPC) using a solution of 0.05 g mL^−1 in water. Detection was carried out by ICP-MS at m/z = 158 and m/z = 159 for Gd and Tb detection, respectively. Samples were hydrodynamically injected (0.3psi for 3 s), then mobilized using Tris 10 mM and NaCl 125 mM at 0.7 psi. Between runs, the capillary was flushed at 5 psi for 5 min with the mobilization medium. All measurements were performed at least in duplicates.
The detected peak was fitted by a sum of Gaussian distributions using Origin 8.5 software, according to Equation (8).(8) St=∑i=12Ai/σi 2πexp−t−t0^2/2σi2 where t0 is the peak residence time, and […] are the area under the curve and the temporal variance associated with each species i, respectively.
Under these experimental conditions, the molecular diffusion coefficient D is given by(9) D=Rc2t0/24σ^2=2kBT/6πηDh where Rc is the capillary radius, kB is the Boltzmann constant, T is the temperature, η is the viscosity, and Dh is the hydrodynamic diameter of the solute.
Therefore, using Equation (9), the hydrodynamic diameters can be calculated from the temporal variances measured from the fitted Taylorgram.

[5] = RB fluorescence lifetime; type: physicochemical; conditions: D2O, λexc = 470 nm
Method: The Ln luminescence lifetime is recorded after excitation at 545 nm for Tb and 313 nm for Gd. The fluorescence lifetime of RB is recorded after excitation at 470 nm ( τf470 ). ^1O2 emission spectra are obtained after excitation at 558 nm (maximum absorption wavelength of RB) but also after excitation at 351 nm for Tb and 273 nm for Gd.
(§1) Absorption spectra were recorded on a UV-3600 UV–visible double beam spectrophotometer (Shimadzu, Marne-La-Vallée, France). Fluorescence spectra were recorded on a Fluorolog FL3-222 spectrofluorimeter (Horiba Jobin Yvon, Palaiseau, France) equipped with a 450 W Xenon lamp and thermostated cell compartment (25 °C), a UV–visible photomultiplier R928 (Hamamatsu Photonics, Hamamatsu, Japan) and an InGaAs infrared detector (DSS-16A020L Electro-Optical System Inc, Phoenixville, PA, USA). The excitation beam was diffracted by a double ruled grating SPEX monochromator (1200 grooves/mm blazed at 330 nm). The emission beam was diffracted by a double ruled grating SPEX monochromator (1200 grooves/mm blazed at 500 nm). Singlet oxygen emission was detected through a double ruled grating SPEX monochromator (600 grooves/mm blazed at 1 µm) and a long-wave pass (780 nm). All spectra were measured in four-face quartz vials.

[6] = Ln luminescence lifetime; type: physicochemical; conditions: D2O, λexc/λdetection = 273/313 nm
[7] = Singlet oxygen production quantum yield; type: physicochemical; conditions: D2O, reference Eosin Y; for ^1O2 quantum yield ΦΔ558: λexc = 558 nm
[8] = Fluorescence quantum yield; type: physicochemical; conditions: D2O, λexc = 558 nm; reference tetraphenylporphyrin
Method: as §1
The fluorescence quantum yield (Φf) is calculated using Equation (6).(6) Φf=Φf0 . If/If0.OD0/OD. (n/n0)^2 where Φf and Φf0, If and If0, OD and OD0, n and n0 are the quantum yields, fluorescence intensities, optical densities, and refractive indices of the sample and reference, respectively.
Tetraphenylporphyrin (TPP) was chosen as the fluorescence reference standard (Φf0 = 0.11, toluene).

[9] = test system: U-251 MG cells; assay: Anchorage-dependent clonogenic assay with X-ray irradiation; type: cell-based, human; conditions: [RB] = 1 µM, 24 h, X-ray 2 Gy (320 kV, 10 mA, 3 Gy/min), clones after 7 days; fraction of untreated non-irradiated cells; mean, triplicates from 3 experiments (n = 9)
[10] = in ethanol; cited from earlier work
From the text: RB is a xanthene PS [22] derived from fluorescein (Figure 1a) with interesting photophysical and sonosensitive properties. For example, Nonaka et al. used sonodynamic therapy (SDT) with RB and focused ultra-sound to treat experimental intracranial glioma in rats. […] RB photoactivation can be used for external application on the body, such as wound sealing or ...

[11] = listed as AGuIX Ln@Mal-K(RB)DKPPR (Ln = Gd)

T1 sequence (O14786 22-923): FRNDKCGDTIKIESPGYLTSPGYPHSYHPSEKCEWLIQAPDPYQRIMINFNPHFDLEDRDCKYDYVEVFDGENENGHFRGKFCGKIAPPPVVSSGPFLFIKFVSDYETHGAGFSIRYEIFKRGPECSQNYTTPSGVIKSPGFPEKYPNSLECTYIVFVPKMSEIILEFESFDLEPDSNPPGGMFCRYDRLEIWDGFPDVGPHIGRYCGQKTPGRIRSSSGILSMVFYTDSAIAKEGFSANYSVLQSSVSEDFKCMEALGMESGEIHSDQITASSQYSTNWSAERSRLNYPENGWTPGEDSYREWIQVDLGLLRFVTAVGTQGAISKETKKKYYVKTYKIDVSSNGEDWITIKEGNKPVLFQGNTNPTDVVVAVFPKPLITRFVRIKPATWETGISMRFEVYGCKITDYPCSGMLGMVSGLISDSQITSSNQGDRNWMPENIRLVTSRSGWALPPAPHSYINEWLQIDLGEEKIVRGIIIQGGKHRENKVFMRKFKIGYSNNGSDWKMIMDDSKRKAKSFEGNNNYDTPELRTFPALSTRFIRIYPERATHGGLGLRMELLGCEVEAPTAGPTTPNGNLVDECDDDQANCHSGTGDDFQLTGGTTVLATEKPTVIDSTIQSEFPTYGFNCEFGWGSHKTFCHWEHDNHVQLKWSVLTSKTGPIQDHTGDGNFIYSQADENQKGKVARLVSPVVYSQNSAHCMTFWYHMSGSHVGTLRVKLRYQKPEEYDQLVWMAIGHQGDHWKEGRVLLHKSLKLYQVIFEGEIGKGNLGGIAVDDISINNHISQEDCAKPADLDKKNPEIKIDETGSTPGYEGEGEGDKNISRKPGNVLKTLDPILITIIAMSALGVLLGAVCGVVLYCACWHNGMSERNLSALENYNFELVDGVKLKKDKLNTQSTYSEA

Compound: KDKPPR [NRP-1-targeting peptide]
- affinity for NRP-1 ([1]; ref 37): affinity of the order of μM
- affinity for NRP-1 ([1]; ref 40): micromolar affinity
- binding affinity for NRP-1 ([1]; ref 41): around 1 μM

Compound: K(RB)DKPPR [NRP-1-targeting peptide coupled to RB]
- affinity for NRP-1 [2]: order of nM; also recorded: affinity in the nM range

Compound: Mal-K(RB)DKPPR [AGuIX Gd@Mal-K(RB)DKPPR, Mal-K(RB)DKPPR conjugated to thiolated AGuIX Gd NPs by thiol-maleimide click chemistry]
- Zeta potential (ζ) [3]: −10 mV
- percentage of population P1 [4]: 95%
- percentage of population P2 [4]: 5%
- Size, population P1 ([4]; Tris 10 mM and NaCl 125 mM): 2.9 nm
- Size, population P2 ([4]; Tris 10 mM and NaCl 125 mM): 14.0 nm
- RB fluorescence lifetime τf470 [5, 11]: 3.8 ns
- Ln luminescence lifetime τL (Gd) [6]: 345 µs
- ^1O2 quantum yield ΦΔ273(Gd) ([7]; λexc = 273 nm): 0.35
- ^1O2 quantum yield ΦΔ558 [7, 11]: 0.67
- Fluorescence quantum yield Φf558 [8]: 0.11
- Cell survival (clonogenic capability relative to control) [9]: 0.63

Compound: O=C1OC2(c3cc(I)c(O)c(I)c3Oc3c2cc(I)c(O)c3I)c2c(Cl)c(Cl)c(Cl)c(Cl)c21 [RB, Rose Bengal]
- RB fluorescence lifetime τf470 [5]: 0.63 ns
- ^1O2 quantum yield ΦΔ351(Tb) or ΦΔ273(Gd) ([7]; λexc = 351 nm or 273 nm (not told apart for RB)): 0.00
- ^1O2 quantum yield ΦΔ558 [7]: 0.67
- Fluorescence quantum yield Φf558 [8]: 0.15
- fluorescence quantum yield (Φf) [10]: 0.11
- singlet oxygen quantum yield (ΦΔ) [10]: 0.68
